In patent publication US8425918B2, “Use of EDTA and its derivatives for prevention and treatment of bacterial intestinal diseases of pigs and for increasing the effects of antibiotics exerted in such diseases” (Pharmatéka Gyártó´és Kereskedelmi BT, priority 2007, dated 2013):

What was measured:
Brachyspira infection [1] = assay: Example 5.2: treatment of pigs suffering from bloody diarrhoea, EDTA Na2 in drinking water; format: in vivo
Description: (§1) Testing of Compositions Comprising EDTA on Pigs Suffering from Bloody Diarrhoea (Brachyspira Infection)
Pigs suffering from bloody diarrhoea, husbanded on the farm according to Example 5.1, were treated with EDTA Na2 in such a way that 200 ppm of EDTA Na2 were dissolved in the drinking water of the animals. […] In the control group where on the day following the cease of diarrhoea the animals were returned to drinking of pure water bloody diarrhoea reappeared after 4 days.

Brachyspira infection [2] = assay: Example 5.1: prevention of bloody diarrhoea, EDTA Na2 salt in the fodder on an infected pig farm; format: in vivo, pigs; settings: 240 ppm EDTA Na2 salt in fodder via premix of Example 1
Text: as §1
On a pig farm infected with the pathogen 3 test groups of 20 animals each and one control group of 20 animals were formed from 90 days old piglets. The fodder of the animals belonging to the test groups was complemented throughout the test period (which lasted to slaughtering) with 240 ppm of EDTA Na2 salt utilizing the premix as described in Example 1.

Brachyspira infection [3] = assay: Example 5.5: prevention in weaned piglets with complemented nourishment; format: in vivo, pigs; settings: test group: nourishment with 240 ppm EDTA Na2, 22 ppm essential oils (1:1 oregano oil and thyme oil) and 100 ppm tannic acid
Text: Testing of Compositions Comprising EDTA on Pigs Suffering from Bloody Diarrhoea (Brachyspira Infection) At a pig farm with frequently occurring bloody diarrhoea three groups were formed randomly from weaned piglets at switching to solid nourishment. In the first group (test group) the animals were fed continuously with a nourishment comprising 240 ppm of EDTA Na2, 22 ppm of essential oils (1:1 mixture of oregano oil and thyme oil) and 100 ppm of tannic acid. In the second group (control group 1) the animals were fed continuously with a nourishment comprising essential oils and tannic acid in the above amounts but free of EDTA Na2. In the third group (control group 2) no EDTA Na2, essential oils or tannic acid were added to the nourishment of the animals. After a certain period of time soft faeces and then bloody diarrhoea appeared in the animals of control group 2 (fed with a nourishment without completion). Bacteria of Brachospira type were detected in the faeces.

Brachyspira infection [4] = assay: Example 5.4: lincomycin-resistant animals, lincomycin therapy maintained plus EDTA Na2 in drinking water; format: in vivo, pigs
Description: as §1
In a part of the lincomycin-resistant animals belonging to the livestock according to Example 5.3, no treatment with another antibiotic was performed, but lincomycin therapy was maintained and simultaneously drinking water comprising 60 ppm of EDTA Na2 was added to the animals.

Brachyspira infection [5] = assay: Example 5.3: lincomycin nourishment with or without EDTA Na2 salt, livestock with bloody diarrhoea partly resistant to lincomycin; format: in vivo, pigs
Text: as §1
At a pig farm infected with the pathogen a nourishment comprising 110 ppm of lincomycin was fed with the livestock suffering from bloody diarrhoea. […] The livestock was separated proportionally, and in the test group 240 ppm of EDTA Na2 salt was admixed to the nourishment, utilizing the premix according to Example 1.

SMILES	cessation of bloody diarrhoea (Brachyspira infection [1]; 200 ppm EDTA Na2 dissolved in drinking water)	time to reappearance of bloody diarrhoea after withdrawal (Brachyspira infection [1]; animals returned to pure water on the day following the cease of diarrhoea)	reoccurrence of bloody diarrhoea (Brachyspira infection [1]; while 200 ppm EDTA Na2 was maintained in the drinking water)	appearance of bloody diarrhoea (Brachyspira infection [2]; 90 days old piglets, until slaughtering)	need for antibiotic treatment (Brachyspira infection [2]; compared with the other animals of the farm)	abnormal biological symptoms (soft faeces, bloody diarrhoea) (Brachyspira infection [3])	pathogenic bacteria in the faeces (Brachyspira infection [4]; 60 ppm EDTA Na2 in drinking water with lincomycin)	cessation of diarrhoea (Brachyspira infection [4]; 60 ppm EDTA Na2 in drinking water, lincomycin therapy maintained, lincomycin-resistant animals)	reoccurrence of diarrhoea (Brachyspira infection [4]; after terminating lincomycin, EDTA Na2 in drinking water continued)	cessation of bloody diarrhoea (Brachyspira infection [5]; 240 ppm EDTA Na2 salt (premix of Example 1) admixed to nourishment comprising 110 ppm lincomycin)	later occurrence of bloody diarrhoea (Brachyspira infection [5]; continued feeding with fodder comprising EDTA Na2 salt)	persistence of bloody diarrhoea (Brachyspira infection [5]; control group: nourishment comprising 110 ppm lincomycin without EDTA Na2 salt)
O=C([O-])CN(CCN(CC(=O)[O-])CC(=O)O)CC(=O)O.[Na+].[Na+] [EDTA Na2 salt]	ceased on the third day	4 days	did not reoccur	No bloody diarrhoea appeared	no antibiotic treatment of the animals of the test groups was required	no abnormal biological symptom could be observed	No pathogenic bacteria could be detected	ceased completely within some days	did not reoccur	completely ceased on the third day	no bloody diarrhoea occurred	–
CCC[C@@H]1C[C@@H](C(=O)N[C@@H]([C@H]2O[C@H](SC)[C@H](O)[C@@H](O)[C@H]2O)[C@@H](C)O)N(C)C1 [lincomycin, reference compound]	–	–	–	–	–	–	–	–	–	–	–	bloody diarrhoea still persisted
